Values quoted from earlier work, collected in US20250049933A1, “DRUG DELIVERY SYSTEM FOR TARGETED CANCER TREATMENT” (priority 2024, published 2025).

Key:
[1] = in vivo

- oral bioavailability [1]: 9%
SMILES: Nc1ccn([C@@H]2O[C@H](CO)[C@@H](O)C2(F)F)c(=O)n1 [GEM, gemcitabine]
- overall survival (pancreatic cancer): 6.7 months
